Experimental data reported in ChEMBL document CHEMBL3774317, “Design and synthesis of novel tamoxifen analogues that avoid CYP2D6 metabolism” (Eur J Med Chem, 2016).
pIC50: −log10 of the molar value.

Tests used:
MCF7 [1] = assay: Antiproliferative activity against human MCF7 cells after 72 hrs by MTT assay
Estrogen receptor = target: T1, Estrogen receptor (Homo sapiens, UniProt P03372)
T1 sequence (P03372 whole entry): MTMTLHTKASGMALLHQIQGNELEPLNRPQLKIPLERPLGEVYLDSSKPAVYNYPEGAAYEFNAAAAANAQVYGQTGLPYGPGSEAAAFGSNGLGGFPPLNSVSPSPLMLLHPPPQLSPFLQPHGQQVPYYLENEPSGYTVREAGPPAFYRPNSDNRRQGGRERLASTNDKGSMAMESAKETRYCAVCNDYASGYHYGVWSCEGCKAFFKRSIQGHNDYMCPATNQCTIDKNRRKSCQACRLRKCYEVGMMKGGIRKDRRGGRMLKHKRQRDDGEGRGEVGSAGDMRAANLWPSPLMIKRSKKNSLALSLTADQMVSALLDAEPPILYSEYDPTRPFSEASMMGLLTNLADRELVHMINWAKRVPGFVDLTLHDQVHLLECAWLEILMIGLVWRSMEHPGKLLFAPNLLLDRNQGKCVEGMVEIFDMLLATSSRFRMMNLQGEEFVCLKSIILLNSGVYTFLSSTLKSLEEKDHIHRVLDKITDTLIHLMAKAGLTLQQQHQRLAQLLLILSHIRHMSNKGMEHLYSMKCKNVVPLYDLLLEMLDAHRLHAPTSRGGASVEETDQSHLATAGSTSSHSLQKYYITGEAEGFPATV
Description: Displacement of [3H]-E2 from human ER-alpha incubated for 16 to 20 hrs by liquid scintillation counting analysis

Estrogen receptor beta = Estrogen receptor beta (Homo sapiens, UniProt Q92731)
Sequence of Estrogen receptor beta (Q92731 whole entry): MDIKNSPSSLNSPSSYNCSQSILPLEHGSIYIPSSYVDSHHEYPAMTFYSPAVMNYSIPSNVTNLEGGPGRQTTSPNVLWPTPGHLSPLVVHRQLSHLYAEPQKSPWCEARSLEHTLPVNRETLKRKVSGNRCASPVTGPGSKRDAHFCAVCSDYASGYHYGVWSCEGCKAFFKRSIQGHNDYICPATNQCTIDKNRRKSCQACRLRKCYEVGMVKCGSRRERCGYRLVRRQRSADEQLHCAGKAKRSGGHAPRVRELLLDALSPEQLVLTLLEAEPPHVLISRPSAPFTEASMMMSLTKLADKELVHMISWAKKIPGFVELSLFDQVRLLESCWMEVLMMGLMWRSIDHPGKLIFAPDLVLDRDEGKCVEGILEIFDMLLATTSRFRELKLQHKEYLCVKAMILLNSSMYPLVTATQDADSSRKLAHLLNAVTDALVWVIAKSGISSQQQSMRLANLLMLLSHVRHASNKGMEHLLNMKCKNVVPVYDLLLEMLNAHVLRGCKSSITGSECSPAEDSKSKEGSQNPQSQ
Description: Displacement of [3H]-E2 from human ER-beta incubated for 16 to 20 hrs by liquid scintillation counting analysis

[2] = Cytotoxicity against human UO31 cells assessed as growth inhibition after 48 hrs by SRB assay; assay type: functional; conditions: UO-31, 48 h
MDA-MB-435 = assay: Cytotoxicity against human MDA-MB-435 cells assessed as growth inhibition after 48 hrs by SRB assay; assay type: functional; conditions: MDA-MB-435, 48 h
[3] = Cytotoxicity against human SKOV3 cells assessed as growth inhibition after 48 hrs by SRB assay; assay type: functional; conditions: SK-OV-3, 48 h
EKVX = assay: Cytotoxicity against human EKVX cells assessed as growth inhibition after 48 hrs by SRB assay; assay type: functional
[4] = Cytotoxicity against human HCT15 cells assessed as growth inhibition after 48 hrs by SRB assay; assay type: functional; conditions: HCT-15, 48 h
[5] = Cytotoxicity against human SNB75 cells assessed as growth inhibition after 48 hrs by SRB assay; assay type: functional; conditions: SNB-75, 48 h
MDA-MB-468 = assay: Cytotoxicity against human MDA-MB-468 cells assessed as growth inhibition after 48 hrs by SRB assay; assay type: functional; conditions: MDA-MB-468, 48 h
[6] = Cytotoxicity against human MOLT4 cells assessed as growth inhibition after 48 hrs by SRB assay; assay type: functional; conditions: MOLT-4, 48 h
MCF7 [7] = assay: Cytotoxicity against human MCF7 cells assessed as growth inhibition after 48 hrs by SRB assay; assay type: functional; conditions: MCF7, 48 h

SMILES	pIC50 (Estrogen receptor)	pIC50 (MCF7 [1]; mcf7)	further results
CCC(=C(c1ccc(O)cc1)c1ccc(OCCN(C)C)cc1)c1ccccc1			pIC50 (MCF7 [1]; Homo sapiens, MCF7, 72 h): 5.55
CCCCCCCCCC(=O)Oc1ccc(/C(=C(/C)c2ccccc2)c2ccc(OCCN3CCCCC3)cc2)cc1	7.09	5.82	
C/C(=C(/c1ccc(O)cc1)c1ccc(OCCN2CCCCC2)cc1)c1ccccc1	9.40	5.91	
C/C(=C(/c1ccc(O)cc1)c1ccc(OCCN(C)C)cc1)c1ccccc1	8.89	5.83	
CCCC(=O)Oc1ccc(/C(=C(/C)c2ccccc2)c2ccc(OCCN(C)C)cc2)cc1	7.46	5.50	
CC(=O)Oc1ccc(/C(=C(\C)c2ccccc2)c2ccc(OCCN(C)C)cc2)cc1	7.66	5.56	
CCCC(=O)Oc1ccc(/C(=C(/C)c2ccccc2)c2ccc(OCCN3CCCC3)cc2)cc1	7.57	5.92	
CC(=O)Oc1ccc(/C(=C(/C)c2ccccc2)c2ccc(OCCN3CCCCC3)cc2)cc1	7.91	5.61	
CCCC(=O)Oc1ccc(/C(=C(/C)c2ccccc2)c2ccc(OCCN3CCCCC3)cc2)cc1	7.48	5.62	
CCCCCCCCCC(=O)Oc1ccc(/C(=C(/C)c2ccccc2)c2ccc(OCCN(C)C)cc2)cc1	7.50	5.95	
CC(=O)Oc1ccc(/C(=C(/C)c2ccccc2)c2ccc(OCCN3CCCC3)cc2)cc1	8.11	5.59	pIC50 (Estrogen receptor beta): 6.59
CC/C(=C(\c1ccccc1)c1ccc(OCCN(C)C)cc1)c1ccccc1 [TAMOXIFEN]			GI50 [2]: 6300 nM; GI50 (MDA-MB-435): 3160 nM; GI50 [3]: 10000 nM; GI50 (EKVX): 6300 nM; GI50 [4]: 3160 nM; GI50 [5]: 5010 nM; GI50 (MDA-MB-468): 2500 nM; pIC50 (MCF7 [1]; Homo sapiens, MCF7, 72 h): 5.36; GI50 [6]: 2500 nM; GI50 (MCF7 [7]): 1580 nM
